# Results published in article PMC3882240, “Matrix Stiffness Affects Endocytic Uptake of MK2-Inhibitor Peptides” (PLoS ONE, 2014).
# Where a SMILES comes first, the peptide text is derived from it. Where no end group is shown, it is not given here. The star is where a group is joined. FITC = O=C1OC2(c3ccc(O)cc3Oc3cc(O)ccc32)c2ccc(NC(=S)*)cc21; Ahx = NCCCCCC(=O)O
# Tested on: mesothelial cells
# Assay: Intracellular uptake of FITC-YARA by flow cytometry / confocal imaging
# Format: cell-based, Human
# Protocol: Flow cytometry was used to characterize the uptake of FITC-YARA. Mesothelial cells were seeded on gel substrates or tissue culture plastic, and cultured as previously described. After treating overnight with serum free media, cells were treated with various concentrations of FITC-YARA (refer to figures) or PBS (untreated control) in serum free media and incubated for 24 hours. To collect cells for flow cytometry, cells were washed with PBS, trypsin treated for 5–10 minutes, neutralized with serum-containing media, collected in a 15-ml conical tube and spun down at 300 × g for seven minutes. Cells were washed with PBS, quenched with trypan blue, then washed four to five times with PBS. Once excess trypan blue was washed away, cells were fixed using 1X cytofix buffer (BD). Samples were stored protected from light at 4°C until samples were run on the Cytomics FC500 MPL flow cytometer (Beckman Coulter) equipped with MXP Cytometry List Mode Data Acquisition and Analysis Software. Data acquisition required 10,000 events. Figures were obtained using Flow Jo software.
# To characterize uptake on soft substrates, cells were pretreated with 10 mM methyl-β-cyclodextrin (MβCD) for 1 hour or incubated at 4°C for 30 minutes, then treated with 3 µM YARA for 1 hour. Cells were then collected and assayed by flow cytometry as previously described.
# To elucidate the role of the cytoskeleton in the uptake of FITC-YARA, mesothelial cells were treated with various chemicals known to alter the cytoskeleton. Cytochalasin D (Sigma; 5 µg/ml) was used as an inhibitor of stress fiber formation on tissue culture plastic, lysophosphatidic acid (LPA; Sigma; 1,5,and 25 µg/ml ) was used to induce stress fiber formation on soft substrates and tissue culture plastic, and nocodozole (Calbiochem; 1 and 10 µg/ml) was used to inhibit microtubule polymerization on soft substrates. Cells were seeded and grown on substrates or tissue culture plastic as previously described. Following one hour pretreatment with the various inhibitors, cells were incubated with FITC-YARA for 1 hour then processed for flow cytometry.
# For confocal images, cells were treated with FITC-YARA for 1 hour, then washed five times with media before imaging live using an FV1000 confocal microscopy equipped with ASW-10 software (Olympus).
"uptake on soft substrates compared to tissue culture plastic (3 µM FITC-YARA, 24 h, 21,000 cells/cm^2, serum-free media, flow cytometry, trypan blue quench)","uptake on soft substrates with MβCD (soft substrate, 10 mM methyl-β-cyclodextrin pretreatment 1 h then 3 µM peptide 1 h, flow cytometry)","uptake on soft substrates at 4°C (soft substrate, 30 min at 4°C then 3 µM peptide 1 h, flow cytometry)","effect of cytochalasin D (actin filament disruption) on peptide uptake (3 µM, TCPS, 5 µg/ml cytochalasin D 1 h pretreatment, peptide 1 h, flow cytometry)","effect of nocodazole (microtubule polymerization inhibition) on uptake (3 µM, soft substrate, 21,000 cells/cm^2, 1 or 10 µg/ml nocodazole 1 h pretreatment, peptide 1 h, flow cytometry, dose dependent)","effect of LPA (actin filament induction) on peptide uptake (3 µM, soft substrate, 21,000 cells/cm^2, 5 or 25 µg/ml LPA 1 h pretreatment, peptide 1 h, flow cytometry)",Compound,"uptake on soft substrates compared to tissue culture plastic at high seeding density (3 µM FITC-YARA, 71,000 cells/cm^2, flow cytometry)","intracellular uptake compared to untreated controls (all substrates, 3 µM FITC-YARA, 24 h, flow cytometry)"
approximately double the uptake,inhibited with MβCD pretreatment,inhibited at low temperatures,–,–,–,CC(C)C[C@H](NC(=O)[C@H](C)NC(=O)[C@H](CCCCN)NC(=O)[C@H](C)NC(=O)[C@H](CCCNC(=N)N)NC(=O)[C@H](C)NC(=O)[C@H](CCC(N)=O)NC(=O)[C@H](CCCNC(=N)N)NC(=O)[C@H](C)NC(=O)[C@H](C)NC(=O)[C@H](C)NC(=O)[C@H](CCCNC(=N)N)NC(=O)[C@H](C)NC(=O)[C@H](Cc1ccc(O)cc1)NC(=O)CCCCCNC(=S)Nc1ccc2c(c1)C(=O)OC21c2ccc(O)cc2Oc2cc(O)ccc21)C(=O)N[C@@H](C)C(=O)N[C@@H](CCCNC(=N)N)C(=O)N[C@@H](CCC(N)=O)C(=O)N[C@@H](CC(C)C)C(=O)NCC(=O)N[C@H](C(=O)N[C@@H](C)C(=O)N[C@@H](C)C(N)=O)C(C)C [FITC-YARA] ({FITC-Ahx}-YARAAARQARAKALARQLGVAA-NH2),decreased the amount of FITC-YARA that was endocytosed,increased intracellular uptake compared to untreated controls
–,–,–,no effect on peptide uptake,pronounced increase in YARA uptake,no effect on peptide uptake,YARAAARQARAKALARQLGVAA-NH2 [YARA],–,–
